Assay results as given in US20170305894A1, “PPAR AGONISTS, COMPOUNDS, PHARMACEUTICAL COMPOSITIONS, AND METHODS OF USE THEREOF” (priority 2014, published 2017).
Where two headings read alike, the source gives them in different places.

Experiments:
[1] = target: T1, Human PPARδ (Homo sapiens, UniProt Q03181); test: PPARδ activity screen: GAL4-PPARδ LBD luciferase transactivation in CV-1 cells; assay type: cell-based
T1 construct: (PPARδ amino acid 128 to C-terminus); expressed in transfected cells; host or cells: CV-1 cells
T1 sequence (Q03181 128-441 limits assumed): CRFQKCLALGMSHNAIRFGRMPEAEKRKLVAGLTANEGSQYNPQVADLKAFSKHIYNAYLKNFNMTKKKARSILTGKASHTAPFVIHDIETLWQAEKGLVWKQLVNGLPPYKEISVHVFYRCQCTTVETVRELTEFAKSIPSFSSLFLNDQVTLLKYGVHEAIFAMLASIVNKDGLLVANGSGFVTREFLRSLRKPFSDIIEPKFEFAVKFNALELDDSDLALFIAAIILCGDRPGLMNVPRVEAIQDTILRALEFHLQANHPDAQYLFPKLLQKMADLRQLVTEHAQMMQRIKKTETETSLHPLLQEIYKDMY
Protocol: CV-1 cells were grown in DMEM+10% charcoal stripped FCS. Cells were seeded into 384-well plates the day before transfection to give a confluency of 50-80% at transfection. A total of […] containing 0.64 micrograms pCMX-PPARDelta LBD, 0.1 micrograms pCMXβGal, 0.08 micrograms pGLMH2004 reporter and 0.02 micrograms pCMX empty vector was transfected per well using FuGene transfection reagent according to the manufacturer's instructions (Roche). Cells were allowed to express protein for 48 h followed by addition of compound.
Human PPARδ was used to PCR amplify the PPARδ LBD. […] Ensuing fusions were verified by sequencing.
Compounds: All compounds were dissolved in DMSO and diluted 1:1000 upon addition to the cells. Compounds were tested in quadruple in concentrations ranging from 0.001 to 100 μM. Cells were treated with compound for 24 h followed by luciferase assay. Each compound was tested in at least two separate experiments.
The activity of a compound is calculated as fold induction compared to an untreated sample. For each compound the efficacy (maximal activity) is given as a relative activity compared to GW501516, a PPARδ agonist. […] EC50 values were calculated via non-linear regression using GraphPad PRISM (GraphPad Software, San Diego, Calif.).

[2] = target: T2, PPARdelta (Homo sapiens, UniProt Q03181); test: NHR Protein Interaction Biosensor assay (PathHunter NHR cell lines, agonist format); assay type: cell-based
T2 construct: expressed in transfected cells
T2 sequence (Q03181 1-441): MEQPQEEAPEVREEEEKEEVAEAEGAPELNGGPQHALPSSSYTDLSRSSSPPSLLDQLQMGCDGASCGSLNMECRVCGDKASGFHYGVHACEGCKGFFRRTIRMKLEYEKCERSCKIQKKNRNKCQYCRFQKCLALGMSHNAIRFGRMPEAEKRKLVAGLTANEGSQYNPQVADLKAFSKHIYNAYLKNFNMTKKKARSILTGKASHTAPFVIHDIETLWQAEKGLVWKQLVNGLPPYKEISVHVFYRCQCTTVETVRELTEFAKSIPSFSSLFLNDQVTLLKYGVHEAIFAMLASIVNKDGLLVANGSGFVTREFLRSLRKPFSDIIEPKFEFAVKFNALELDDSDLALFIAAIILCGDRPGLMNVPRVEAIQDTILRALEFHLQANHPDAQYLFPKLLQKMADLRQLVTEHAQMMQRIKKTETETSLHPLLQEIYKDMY
Protocol: (2) Nuclear Hormone Receptor (NHR) Assays
PathHunter NHR cell lines were expanded from freezer stocks according to standard procedures. Cells were seeded in a total volume of 20 μL into white walled, 384-well microplates and incubated at 37° C. for the appropriate time prior to testing. Assay media contained charcoal-dextran filtered serum to reduce the level of hormones present.
For agonist determination, cells were incubated with sample to induce response. Intermediate dilution of sample stocks was performed to generate 5× sample in assay buffer. […] Final assay vehicle concentration was 1%.
Microplates were read following signal generation with a PerkinElmer Envision™ instrument for chemiluminescent signal detection.
Compound activity was analyzed using CBIS data analysis suite (ChemInnovation, CA). For agonist mode assays, percentage activity was calculated using the following formula:
% Activity=100%×(mean RLU of test sample−mean RLU of vehicle control)/(mean MAX control ligand−mean RLU of vehicle control).

[3] = CV-1 cells, GAL4-PPARδ LBD luciferase reporter, compound for 24 h, read-out: PPAR delta transactivation EC50
[4] = PathHunter NHR cells, agonist format, read-out: NHR Protein Interaction Biosenor assay, PPARdelta EC50

Row | SMILES | EC50 [1, 3] [nM] | EC50 [2, 4] [nM] | EC50 [2] [nM] | EC50 [1] [nM]
1 | Cc1cnc(-c2ccc(-c3ccco3)cc2)n1Cc1ccccc1OCCCCCC(=O)O [Compound 8a, 6-(2-((2-(4-(furan-2-yl)phenyl)-5-methyl-1H-imidazol-1-yl)methyl)phenoxy) hexanoic acid] | 0.9 | < 0.51 | – | –
2 | Cc1ccc(-c2ccc(-c3ncc(C)n3Cc3ccccc3OCCCCCC(=O)O)cc2)o1 [Compound 8b, 6-(2-((5-methyl-2-(4-(5-methylfuran-2-yl)phenyl)-1H-imidazol-1-yl)methyl)phenoxy)hexanoic acid] | 1.2 | 0.58 | – | –
3 | Cc1cnc(-c2ccc(-c3ccco3)cc2)n1Cc1ccccc1OCCCCC(C)(C)C(=O)O [Compound 8d, 6-(2-((2-(4-(furan-2-yl)phenyl)-5-methyl-1H-imidazol-1-yl)methyl)phenoxy)-2,2-dimethylhexanoic acid] | 4.5 | 0.84 | – | –
4 | C/C(=C\COc1ccccc1Cn1c(C)cnc1-c1ccc(-c2ccco2)cc1)CCC(=O)O [Compound 8e, (E)-6-(2-((2-(4-(furan-2-yl)phenyl)-5-methyl-1H-imidazol-1-yl)methyl)phenoxy)-4-methylhex-4-enoic acid] | 1 | 0.79 | – | –
5 | Cc1cnc(-c2ccc(C#CC(F)(F)F)cc2)n1Cc1ccccc1OCCCCCC(=O)O [Compound 8g, 6-(2-((5-methyl-2-(4-(3,3,3-trifluoroprop-1-yn-1-yl)phenyl)-1H-imidazol-1-yl)methyl)phenoxy)hexanoic acid] | 8.3 | 0.65 | – | –
6 | Cc1cnc(-c2ccc(OC(F)(F)F)cc2)n1Cc1ccccc1OCCCCCC(=O)O [Compound 8h, 6-(2-((5-methyl-2-(4-(trifluoromethoxy)phenyl)-1H-imidazol-1-yl)methyl)phenoxy)hexanoic acid] | 0.94 | 1.49 | – | –
7 | Cc1cn(Cc2ccccc2OCCCCCC(=O)O)c(-c2ccc(-c3ccco3)cc2)n1 [Compound 8i, 6-(2-((2-(4-(furan-2-yl)phenyl)-4-methyl-1H-imidazol-1-yl)methyl)phenoxy) hexanoic acid] | 15.7 | – | 13.4 | –
8 | Cc1cn(Cc2ccccc2OCCCCCC(=O)O)c(-c2ccc(-c3ccc(C)o3)cc2)n1 [Compound 8j, 6-(2-((4-methyl-2-(4-(5-methylfuran-2-yl)phenyl)-1H-imidazol-1-yl)methyl)phenoxy)hexanoic acid] | 56 | 5.01 | – | –
9 | Cc1cn(Cc2ccccc2OCCCCC(C)(C)C(=O)O)c(-c2ccc(-c3ccco3)cc2)n1 [Compound 8k, 6-(2-((2-(4-(furan-2-yl)phenyl)-4-methyl-1H-imidazol-1-yl)methyl)phenoxy)-2,2-dimethylhexanoic acid] | 58 | 16.5 | – | –
10 | O=C(O)CCCCCOc1ccccc1Cn1ccnc1-c1ccc(-c2ccco2)cc1 [Compound 8l, 6-(2-((2-(4-(furan-2-yl)phenyl)-1H-imidazol-1-yl)methyl)phenoxy)hexanoic acid] | 9.5 | 1.28 | – | –
11 | Cc1nc(-c2ccc(-c3ccco3)cc2)c(Cc2ccccc2OCCCCCC(=O)O)s1 [Compound 8m, 6-(2-((4-(4-(furan-2-yl)phenyl)-2-methylthiazol-5-yl)methyl)phenoxy) hexanoic acid] | – | – | 1.27 | 18
12 | Cn1cc(Cc2ccccc2OCCCCCC(=O)O)c(-c2ccc(-c3ccco3)cc2)n1 [Compound 8n, 6-(2-((3-(4-(furan-2-yl)phenyl)-1-methyl-1H-pyrazol-4-yl)methyl)phenoxy)hexanoic acid] | – | – | 19.9 | 117
13 | C/C(=C\COc1ccccc1Cc1c(C)noc1-c1ccc(-c2ccco2)cc1)CCC(=O)O [Compound 8o, (E)-6-(2-((5-(4-(furan-2-yl)phenyl)-3-methylisoxazol-4-yl)methyl)phenoxy)-4-methylhex-4-enoic acid] | – | – | 9.12 | 2.9
14 | C/C(=C\COc1ccccc1Cc1c(C)n[nH]c1-c1ccc(-c2ccco2)cc1)CCC(=O)O [Compound 8p, (E)-6-(2-((5-(4-(furan-2-yl)phenyl)-3-methyl-1H-pyrazol-4-yl)methyl)phenoxy)-4-methylhex-4-enoic acid] | – | – | 4.97 | 1.2
15 | Cc1cnc(-c2ccc(-c3ccco3)cc2)n1Cc1ccccc1CCCCCCC(=O)O [Compound 8q, 7-(2-((2-(4-(furan-2-yl)phenyl)-5-methyl-1H-imidazol-1-yl)methyl)phenyl)heptanoic acid] | 3.1 | 13 | – | –
16 | C/C(=C\COc1ccccc1Cn1c(C)cnc1-c1ccc(Cl)nc1)CCC(=O)O [Compound 8r, (E)-6-(2-((2-(6-chloropyridin-3-yl)-5-methyl-1H-imidazol-1-yl)methyl)phenoxy)-4-methylhex-4-enoic acid] | 5.5 | – | – | –
